Assay results taken from ChEMBL document CHEMBL1821650, “Pharmacodynamic synergy strictly dependent on the co-operative aggregation of enantiomers of cyclic peptides in the bacterial cell membrane” (Bioorg Med Chem Lett, 2011).
Calls of active or inactive are those of the source. The rule behind the calls is not given here.

How the values were obtained:
[1] = Toxicity in sheep erythrocytes assessed as hemolysis at up to 100 uM after 20 mins; assay type: cell-based, Ovis aries; settings: erythrocyte
Priestia megaterium [2] = assay: Antimicrobial activity against Bacillus megaterium after 18 hrs by broth microdilution method; assay type: functional, organism-based
Priestia megaterium [3] = assay: Antimicrobial activity against Bacillus megaterium at 1 mM after 24 hrs by agar diffusion method; assay type: functional, organism-based
[4] = Solubility of the compound in 33 % acetonitrile-water; assay type: physicochemical; settings: buffer
Priestia megaterium [5] = assay: Antimicrobial activity against Bacillus megaterium at > 50 uM by broth microdilution method; assay type: functional, organism-based
[6] = Toxicity in sheep erythrocytes assessed as hemolysis at up to 1000 uM after 20 mins; assay type: cell-based, Ovis aries; settings: erythrocyte

| Structure (SMILES) | Activity [1] | Activity (Priestia megaterium [2]) | Activity (Priestia megaterium [3]) | solubility [4] | Activity (Priestia megaterium [5]) | Activity [6] |
| --- | --- | --- | --- | --- | --- | --- |
| C[C@H]1NC(=O)[C@H](CC(C)(C)C)NC(=O)[C@@H](C)NC(=O)[C@H](CC(C)(C)C)NC(=O)[C@@H](CCCCN)NC(=O)[C@H](CC(C)(C)C)NC(=O)[C@@H](C)NC(=O)[C@H](CC(C)(C)C)NC1=O | Non-toxic | Active | Active |  |  |  |
| C[C@@H]1NC(=O)[C@@H](CC(C)(C)C)NC(=O)[C@H](C)NC(=O)[C@@H](CC(C)(C)C)NC(=O)[C@H](CCCCN)NC(=O)[C@@H](CC(C)(C)C)NC(=O)[C@H](C)NC(=O)[C@@H](CC(C)(C)C)NC1=O | Non-toxic | Active | Active |  |  |  |
| CC(C)(C)C[C@H]1NC(=O)[C@H](CCC(N)=O)NC(=O)[C@@H](CC(C)(C)C)NC(=O)[C@H](CCC(N)=O)NC(=O)[C@@H](CC(C)(C)C)NC(=O)[C@H](CCC(=O)O)NC(=O)[C@@H](CC(C)(C)C)NC(=O)[C@H](CCC(N)=O)NC1=O |  |  |  | soluble |  |  |
| C[C@@H]1NC(=O)[C@@H](CC(C)(C)C)NC(=O)[C@H](C)NC(=O)[C@@H](CC(C)(C)C)NC(=O)[C@@H](CCCCN)NC(=O)[C@@H](CC(C)(C)C)NC(=O)[C@H](C)NC(=O)[C@@H](CC(C)(C)C)NC1=O |  | inactive | inactive |  | Active | Non-toxic |
| C[C@H]1NC(=O)[C@H](CC(C)(C)C)NC(=O)[C@@H](C)NC(=O)[C@H](CC(C)(C)C)NC(=O)[C@@H](C)NC(=O)[C@H](CC(C)(C)C)NC(=O)[C@H](CCCCN)NC(=O)[C@H](CC(C)(C)C)NC1=O |  | inactive | inactive |  | Active | Non-toxic |
| CC(C)(C)C[C@@H]1NC(=O)[C@@H](CCC(N)=O)NC(=O)[C@H](CC(C)(C)C)NC(=O)[C@@H](CCC(N)=O)NC(=O)[C@H](CC(C)(C)C)NC(=O)[C@@H](CCC(=O)O)NC(=O)[C@H](CC(C)(C)C)NC(=O)[C@@H](CCC(N)=O)NC1=O |  |  |  | soluble |  |  |
